Laboratory results published in patent publication US10016382B2, “Method for decreasing skeletal muscle damage and/or oxidative stress in mammals” (LONZA INC., priority 2014, dated 2018).

Legend:
[1] = test system: total antioxidant capacity (TAC); experiment: Serum total antioxidant capacity (TAC), Example 1; assay type: in vivo, dog; conditions: for Change in TAC, post-run minus pre-run: following 15 mile long run at 13 wk, mean ± SEM
Description: Blood Analysis: Serum samples were taken at three different times from each dog during the 90 day period. The blood samples were collected as follows: 1.) just prior to scanning each dog for body composition at the beginning of the study, 2.) prior to the long run on the 13th week, and 3.) following the long run on the 13th week. The serum samples were analyzed for Phosphocreatine Kinase and Canine Myoglobin to determine the amount of muscle protein leakage that occurred following the long run and TBARS and Total Antioxidant Capacity (TAC) were determined to evaluate the antioxidant status of each of the test dogs during the exercise program. The final blood sample was taken 24 hr after the long run to obtain maximum protein leakage based on previous similar types of exercise research with human athletes. Biomarkers and Assay Methods: Blood was drawn from each dog using a serum separator tube at three different times during the 90 day period: 1.) just prior to scanning each dog for body composition at the beginning of the study, 2.) prior to the long run on the 13th week, and 3.) following the long run on the 13th week. The final blood sample was taken 24 hr after the long run to obtain maximum protein leakage based on previous similar types of exercise research with human athletes. Each time after the blood was drawn it was allowed to clot before being centrifuged for 15 min at 2000 g at 4° C. Serum was aliquoted into 1.5 mL microcentrifuge tubes and stored at −80° C. until assays were ran following the end of the study. Creatine kinase (CK) and canine myoglobin were measured to determine the amount of muscle protein leakage that occurred following the long run. Thiobarbituric acid reactive substances (TBARS) and total antioxidant capacity (TAC) were measured to evaluate the antioxidant status of each of the test dogs during the exercise program. Serum samples were analyzed for total antioxidant capacity (TAC) and thiobarbituric acid reactive substances (TBARS) using commercially available colorimetric kits supplied by Cayman Chemical Company (Ann Arbor, Mich.) per manufacturer instructions. Serum canine myoglobin levels were determined using a commercially available ELISA supplied by Innovate Research (Novi, Mich.) per manufacturer instructions. Creatine kinase activity was determined colorimetrically using a commercially available kit supplied by BioVision (San Francisco, Calif.).

skeletal protein = experiment: Fractional synthesis rate (FSR) of skeletal protein, 15N Phe infusion, Example 2 part two; assay type: in vivo, dog
Description: At the end of the 60 day training program, 24 of the dogs (12 resting and 12 running) were infused with a bolus dose of 15N Phe. […] Forty-five minutes after infusion, a 5 mm Bergstrom muscle biopsy needle was used to take a biopsy of the biceps femoris muscle. The muscle samples were quickly frozen in liquid nitrogen and placed in a -80° C. freezer for later analysis]. Twenty-four hours after the resting dogs were infused with 15N Phe, the remaining 12 dogs (6 non-carnitine; 3 male and 3 female and 6 L-carnitine; 3 male and 3 female) were run for a 15 mile endurance run. Following a 30 minute period of measured physiological recovery (heart rate and body temperature), test dogs that completed the 15 mile run were infused with a 2% 15N Phe solution as described above; muscle biopsies were taken 45 minutes after infusion. To process the samples, the acid-soluble fraction containing free amino acids was removed by addition of 2% (w/v) perchloric acid. After homogenization, samples were centrifuged at 3,000×g, and the supernatant, containing free amino acids, was removed. The protein precipitate was washed three times with 2% perchloric acid before being hydrolyzed in 6N HCL. The supernatant and precipitate, respectively, were then run through an ion-exchange column packed with Dowex 50WX8-200. Phenylalanine and 3-methylhistidine (3-MH) were eluted with 2 mL of 4N NH4OH and 1 mL of nanopure H2O into a new vial and then dried under vacuum. The tert-butyldimethylsilyl (tBDMS) derivative was formed by adding 800 μL of C2CH3CN-MTBSTFA (1:1) and incubating at 110° C. for 60 minutes. Analysis of the protein precipitate of muscle samples and free amino acids were carried out on an Agilent 7890A GC system attached to an Agilent 6975C mass spectrometer. Helium was used as the carrier gas at 1 mL/min. A 1 μL volume was injected into the GC/MS in splitless mode. Oven temperature began at 150° C. and increased by 50° C./min until reaching 200° C., after which the temperature was increased by 20° C./min until reaching 270° C. The temperature was held at 270° C. for 5.5 minutes. The mass spectrometer was operated under EI and SIM modes. The 394 and 395 m/z fragments, which represented the M and M+1 fragments of phenylalanine, were monitored.

SMILES: C[N+](C)(C)C[C@H](O)CC(=O)[O-] [L-carnitine]
- TAC Least Sq Mean ([1]; Baseline): 0.1066 mM Trolox Equiv
- TAC Least Sq Mean ([1]; Baseline, F): 0.1064 mM Trolox Equiv
- TAC Least Sq Mean ([1]; Baseline, M): 0.1067 mM Trolox Equiv
- TAC, serum, Mean ([1]; Ex.1, 250 mg/d, Baseline, both sexes): 0.107 mM Trolox Equiv
- TAC, serum, Mean ([1]; Ex.1, 250 mg/d, Baseline, females): 0.106 mM Trolox Equiv
- TAC, serum, Mean ([1]; Ex.1, 250 mg/d, Baseline, males): 0.107 mM Trolox Equiv
- TAC, serum, Mean ([1]; Ex.1, 250 mg/d, Post-run, both sexes): 0.087 mM Trolox Equiv
- TAC, serum, Mean ([1]; Ex.1, 250 mg/d, Post-run, females): 0.069 mM Trolox Equiv
- TAC, serum, Mean ([1]; Ex.1, 250 mg/d, Post-run, males): 0.102 mM Trolox Equiv
- TAC, serum, Mean ([1]; Ex.1, 250 mg/d, Pre-run, both sexes): 0.118 mM Trolox Equiv
- TAC, serum, Mean ([1]; Ex.1, 250 mg/d, Pre-run, females): 0.106 mM Trolox Equiv
- TAC, serum, Mean ([1]; Ex.1, 250 mg/d, Pre-run, males): 0.128 mM Trolox Equiv
- Effect on TAC of the test dogs ([1]; Ex.1, 250 mg/d, during the study, vs control): did not have a significant effect
- Change in TAC, post-run minus pre-run ([1]; Ex.1, 250 mg/d, both sexes): −0.03 ± 0.01 n = 20 mM Trolox Equiv
- Change in TAC, post-run minus pre-run ([1]; Ex.1, 250 mg/d, females): −0.04 ± 0.01 n = 9 mM Trolox Equiv
- Change in TAC, post-run minus pre-run ([1]; Ex.1, 250 mg/d, males): −0.03 ± 0.01 n = 11 mM Trolox Equiv
- TAC Least Sq Mean ([1]; Post-run): 0.08522 mM Trolox Equiv
- TAC Least Sq Mean ([1]; Post-run, F): 0.06866 mM Trolox Equiv
- TAC Least Sq Mean ([1]; Post-run, M): 0.1018 mM Trolox Equiv
- TAC Least Sq Mean ([1]; Pre-run): 0.1171 mM Trolox Equiv
- TAC Least Sq Mean ([1]; Pre-run, F): 0.1063 mM Trolox Equiv
- TAC Least Sq Mean ([1]; Pre-run, M): 0.128 mM Trolox Equiv
- TAC Least Sq Mean ([1]; Treatment * Sex, F): 0.1064 mM Trolox Equiv
- TAC Least Sq Mean ([1]; Treatment * Sex, M): 0.1067 mM Trolox Equiv
- TAC Least Sq Mean ([1]; Treatment level, all dogs): 0.1066 mM Trolox Equiv
- Total Antioxidant capacity, mixed model Estimate, term Time[Post-run-Pre-run] * Treatment[L-carnitine] ([1]; serum, model term): −0.001428
- Total Antioxidant capacity, mixed model Estimate, term Time[Post-run-Pre-run] * Treatment[L-carnitine] * Sex[F] ([1]; serum, model term): −0.001227
- Total Antioxidant capacity, mixed model Estimate, term Time[Pre-run-Baseline] * Treatment[L-carnitine] ([1]; serum, model term): −0.00085
- Total Antioxidant capacity, mixed model Estimate, term Time[Pre-run-Baseline] * Treatment[L-carnitine] * Sex[F] ([1]; serum, model term): 0.001958
- Total Antioxidant capacity, mixed model Estimate, term Treatment[L-carnitine] ([1]; serum, model term): 0.001356
- Total Antioxidant capacity, mixed model Estimate, term Treatment[L-carnitine] * Sex[F] ([1]; serum, model term): 0.001671
- % FSR of skeletal protein vs control (skeletal protein; Ex.2 part two, 250 mg/d, male or female dogs): did not increase
- FSR (skeletal protein; Female, no run): 5.04%
- FSR (skeletal protein; Female, run): 2.54%
- FSR (skeletal protein; Male, no run): 3.61%
- FSR (skeletal protein; Male, run): 4.63%
